The text below walks through data of patent publication US20020160055A1, “Methods for treating human immunodeficiency virus infections with gallium compositions” (priority 2000, published 2002).

One may read the IC50 as the concentration that inhibits the measured activity by half.

One data set relates to PBMC. Briefly: Effects on PBMC proliferation and viability (Trypan blue staining and counting). As to conditions: 48 hrs. In kind it is cell-based, human. As for the experimental part:
FIG. 4—Effects of Gallium Nitrate on PBMC Proliferation and Viability. Experiments were carried out in duplicate, and experiments repeated a minimum of three times. Gallium nitrate (Ga) was obtained from the National Cancer Institute. Cells were incubated in Ga at concentrations noted, and were stained at 48 hrs with Trypan blue and counted.
(§1) Various concentrations of Ga or HU were added to PHA/IL2 stimulated PBMC's 24 hours prior to infection with HIV. Following infection, cells were washed and culture supernatants were obtained 4 and 7 days post-infection.

The test system of the next data set is HIV-1. Briefly: Inhibition of HIV replication in PHA/IL2 stimulated PBMC's (p24 antigen in culture supernatants). In kind it is cell-based. As for the experimental part:
FIG. 1—Gallium Nitrate and Hydroxyurea Inhibition of HIV-1 Replication. PHA/IL-2 stimulated human PBMC's (1×10^6), and MT-2 cells (1×10^6) were grown and maintained in RPMI 1640 media containing 20% fetal calf sera, glutamine and antibiotics (Thelander & Reichard, 1979). Experiments were carried out in duplicate, and experiments repeated a minimum of three times. Gallium nitrate (Ga) was obtained from the National Cancer Institute. Hydroxyurea (HU) was obtained from Sigma Chemicals (St. Louis, Mo.). Ga and HU were added to PBMC's 24 hrs prior to infection, and cells were washed 16 hrs post-infection. Culture supernatants were obtained 4 and 7 days post-infection for p24 antigen measurement.
as §1
HIV (Catalog# 1073, NIH AIDS Reference Program) was used in these studies. […] Viral replication was measured by determining the concentration of p24 antigen in culture supernatants (Organon-Teknika), and by visually observing a reduction in syncytia formation (Cook et al., 1997). In addition, a quantitative measurement of syncytia induction—inhibition was employed (described below). […]

For a further data set, the system named is HIV. As to conditions: results of U.S. Pat. No. 5,525,598; cited from earlier work.

Regarding `O=[N+]([O-])[O-].O=[N+]([O-])[O-].O=[N+]([O-])[O-].[Ga+3]` [Ga, Gallium nitrate], the “effect on cellular proliferation or viability at concentrations inhibiting HIV replication” value in the data set on PBMC is on record as “did not inhibit cellular proliferation or viability”. The “fold lower IC50 of Ga than HU” value in the data set with HIV-1 (present culture system) is “approximately 15 fold”.
With `NC(=O)NO` [HU, Hydroxyurea], the IC50 in the data set with HIV-1 (Human immunodeficiency virus 1, PHA/IL2 stimulated PBMC's, added 24 hours prior to infection, supernatants 4 and 7 days post-infection) is 120 µM.
As for `Cc1cn([C@H]2C[C@H](N=[N+]=[N-])[C@@H](CO)O2)c(=O)[nH]c1=O` [3′-azido-2,3′-deoxythymidine], the therapeutic index with HIV is reported as 3680.
